Experimental data from the supplement of paper PMC10307832.

Assays:
Experiment in all cases: relative viability (nuclei count vs DMSO), 5 days (fraction); higher = more cells survive
[1] = compound: C1=CC=C(C(=C1)C2=CC=C(C=C2)C3=CSC4=C3C(=C(C(=O)N4)C#N)O)O + CC(=O)c1c(C)c2cnc(Nc3ccc(N4CCNCC4)cn3)nc2n(C2CCCC2)c1=O [Palbociclib] (partner 0.5 µM)
Summary of the method: (§1)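 The day after seeding in 1536-well plates, lung cancer cell lines were treated by pin tool with a single drug, or with a fixed anchor-drug dose together with five library-drug doses (not always all listed) in √10 steps. After 5 days, a combined fix-and-stain solution (final 0.05% Triton X-100, 1% formaldehyde, 1 ug/ml Hoechst) was added. Nuclei counted on 4× images gave relative viability as treated counts over vehicle counts, reported as the median of duplicate plates.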

[2] = compound: CC1=CN2C(=O)C=C(N=C2C(=C1)C(C)NC3=CC=CC=C3)N4CCOCC4 [TGX 221] + C[C@]1(O)C[C@@H](c2nc(-c3ccc4ccc(-c5ccccc5)nc4c3)c3c(N)nccn32)C1 [Linsitinib] (partner 1 µM)
Summary of the method: as §1

[3] = compound: O=C(CCCCCCNC(=O)c1cnc(N(c2ccccc2)c2ccccc2)nc1)NO [Ricolinostat] + COc1cccc2cc(-c3nc([C@H]4CC[C@H](C(=O)O)CC4)n4ncnc(N)c34)[nH]c12 [OSI-027] (partner 0.5 µM)
Summary of the method: as §1

[4] = compound: C1=CC=C(C(=C1)C2=CC=C(C=C2)C3=CSC4=C3C(=C(C(=O)N4)C#N)O)O + CC(C)C[C@H](NC(=O)[C@H](Cc1ccccc1)NC(=O)c1cnccn1)B(O)O [Bortezomib] (partner 0.002 µM)
Summary of the method: as §1

Row | Cell Line | relative viability ([1]; first compound 0.08 µM) | relative viability ([1]; first compound 0.253 µM) | relative viability ([1]; first compound 0.8 µM) | relative viability ([1]; first compound 2.53 µM) | relative viability ([1]; first compound 8 µM) | relative viability ([2]; first compound 0.08 µM) | relative viability ([2]; first compound 0.253 µM) | relative viability ([2]; first compound 0.8 µM) | relative viability ([2]; first compound 2.53 µM) | relative viability ([2]; first compound 8 µM) | relative viability ([3]; first compound 0.08 µM) | relative viability ([3]; first compound 0.253 µM) | relative viability ([3]; first compound 0.8 µM) | relative viability ([3]; first compound 2.53 µM) | relative viability ([4]; first compound 0.08 µM) | relative viability ([4]; first compound 0.253 µM) | relative viability ([4]; first compound 0.8 µM) | relative viability ([4]; first compound 2.53 µM) | relative viability ([4]; first compound 8 µM)
1 | ABC-1 | 0.615 | 0.921 | 0.804 | 0.591 | 0.433 | 0.964 | 0.794 | 0.773 | 0.557 | 0.547 | 0.425 | 0.518 | 0.482 | 0.292 | 0.281 | 0.326 | 0.326 | 0.364 | 0.324
2 | NCI-H1563 | – | – | – | – | – | 1.2 | 1.2 | 0.909 | 0.868 | 0.755 | 0.759 | 0.731 | 0.774 | 0.62 | 0.543 | 0.953 | 0.909 | 0.785 | 0.759
3 | NCI-H1355 | 0.445 | 0.413 | 0.437 | 0.412 | 0.378 | 0.743 | 0.666 | 0.621 | 0.453 | 0.546 | 0.296 | 0.477 | 0.404 | 0.299 | 0.981 | 1.31 | 1.25 | 1.12 | 1.19
4 | NCI-H2228 | 0.687 | 0.6 | 0.747 | 0.759 | 0.6 | 0.411 | 0.624 | 0.625 | 0.29 | 0.344 | 0.593 | 0.496 | 0.616 | 0.286 | 0.973 | 0.922 | 1.07 | 0.959 | 0.73
5 | LXF-289 | 0.612 | 0.595 | 0.681 | 0.629 | 0.675 | 0.956 | 0.965 | 0.98 | 0.931 | 1 | 0.668 | 0.906 | 0.782 | 0.749 | 0.974 | 0.973 | 1 | 1 | 0.986
6 | NCI-H2085 | 0.468 | 0.573 | 0.435 | 0.49 | 0.472 | 0.947 | 0.774 | 0.673 | 0.309 | 0.408 | – | 0.72 | 0.627 | 0.414 | 0.919 | 1.26 | 1.01 | 0.952 | 0.992
7 | NCI-H2342 | 0.538 | 0.513 | 0.538 | 0.488 | 0.529 | – | – | – | – | – | 0.515 | 0.588 | 0.575 | 0.633 | – | – | – | – | –
8 | EMC-BAC-2 | 0.523 | 0.595 | 0.507 | 0.539 | 0.51 | 0.814 | 0.72 | 0.737 | 0.743 | 0.692 | 0.353 | 0.363 | 0.343 | 0.271 | 0.995 | 1.25 | 1.15 | 1.05 | 0.957
9 | IA-LM | – | – | – | – | – | 0.685 | 0.509 | 0.58 | 0.621 | 0.685 | – | – | – | – | 0.672 | 1.13 | 0.879 | 1.01 | 0.58
10 | A549 | – | – | – | – | – | 0.491 | 0.451 | 0.391 | 0.432 | 0.456 | – | – | – | – | – | – | – | – | –
11 | NCI-H1793 | 0.255 | 0.422 | 0.316 | 0.285 | 0.261 | 0.768 | 0.616 | 0.531 | 0.467 | 0.474 | – | 0.252 | 0.284 | 0.221 | – | – | – | – | –
12 | NCI-H1650 | 0.23 | 0.332 | 0.317 | 0.31 | 0.31 | – | – | – | – | – | 0.471 | 0.586 | 0.459 | 0.361 | – | 0.241 | 0.228 | 0.207 | 0.207
13 | NCI-H1299 | – | – | – | – | – | 0.976 | 1.04 | 1.04 | 0.902 | 0.969 | – | – | – | – | 1.07 | 1.04 | 0.995 | 1 | 0.975
14 | SK-MES-1 | 0.296 | 0.305 | 0.306 | 0.305 | 0.315 | 1.05 | 1.03 | 1.03 | 0.913 | 0.573 | 0.407 | 0.561 | 0.534 | 0.558 | – | – | – | – | –
15 | LK-2 | 0.515 | 0.749 | 0.629 | 0.913 | 0.517 | 0.523 | 0.548 | 0.627 | 0.625 | 0.625 | 0.202 | 0.234 | 0.212 | 0.208 | – | – | – | – | –
16 | SW 900 | – | 0.621 | 0.638 | 0.518 | 0.429 | – | – | – | – | – | 0.462 | 0.808 | 0.562 | 0.535 | – | – | – | – | –
17 | NCI-H1395 | – | 0.706 | 0.593 | 0.611 | 0.657 | 1 | 0.865 | 1.04 | 0.598 | 0.665 | – | 0.651 | 0.613 | 0.663 | – | – | – | – | –
18 | NCI-H1703 | – | – | – | – | – | 0.678 | 0.522 | 0.48 | 0.487 | 0.636 | – | – | – | – | 0.28 | 0.395 | 0.289 | 0.301 | 0.38
19 | NCI-H522 | 0.943 | 1.06 | 0.916 | 0.944 | 0.881 | – | – | – | – | – | 0.822 | 0.736 | 0.665 | 0.69 | – | – | – | – | –
20 | NCI-H1623 | – | – | – | – | – | – | – | – | – | – | 0.389 | 0.428 | 0.414 | 0.312 | – | – | – | – | –
21 | NCI-H596 | – | – | – | – | – | 1.13 | 0.913 | 0.972 | 0.972 | 0.985 | 0.801 | 0.82 | 0.845 | 0.5 | 0.715 | 1.63 | 1.2 | 0.926 | 0.933
22 | Calu-6 | – | – | – | – | – | 0.909 | 0.913 | 0.935 | 0.855 | 0.84 | – | – | – | – | 1.18 | 1.14 | 1.26 | 1.06 | 0.971
23 | NCI-H1944 | 0.329 | 0.343 | 0.352 | 0.306 | 0.289 | 1.07 | 1.03 | 1.04 | 0.921 | 0.669 | 0.321 | 0.405 | 0.34 | 0.292 | – | – | – | – | –
24 | EBC-1 | – | – | – | – | – | 0.911 | 0.726 | 0.822 | 0.687 | 0.702 | – | – | – | – | 0.629 | 0.435 | 0.489 | 0.598 | 0.509
25 | NCI-H358 | 0.13 | 0.17 | 0.124 | 0.135 | 0.123 | 0.757 | 0.684 | 0.732 | 0.65 | 0.588 | 0.584 | 0.802 | 0.734 | 0.954 | – | – | – | – | –
